Experimental data as given in ChEMBL document CHEMBL4152222, “Structural insights into serotonin receptor ligands polypharmacology” (Eur J Med Chem, 2018).

What was measured:
[1] = target: 5-hydroxytryptamine receptor 6 (Homo sapiens, UniProt P50406); experiment: Displacement of [3H]-LSD from human 5-HT6 receptor expressed in HEK293 cell membranes after 1 hr by microbeta TopCount analysis
[2] = species: Homo sapiens; experiment: Selectivity index, ratio of Ki for human 5-HT1A receptor to Ki for human 5-HT6 receptor
[3] = species: Homo sapiens; experiment: Selectivity index, ratio of Ki for human 5-HT1A receptor to Ki for human 5-HT7B receptor
[4] = target: T1, 5-hydroxytryptamine receptor 1A (Homo sapiens, UniProt P08908); experiment: Displacement of [3H]-8-OH-DPAT from human 5-HT1A receptor expressed in HEK293 cell membranes after 1 hr by microbeta TopCount analysis
T1 sequence (P08908 whole entry): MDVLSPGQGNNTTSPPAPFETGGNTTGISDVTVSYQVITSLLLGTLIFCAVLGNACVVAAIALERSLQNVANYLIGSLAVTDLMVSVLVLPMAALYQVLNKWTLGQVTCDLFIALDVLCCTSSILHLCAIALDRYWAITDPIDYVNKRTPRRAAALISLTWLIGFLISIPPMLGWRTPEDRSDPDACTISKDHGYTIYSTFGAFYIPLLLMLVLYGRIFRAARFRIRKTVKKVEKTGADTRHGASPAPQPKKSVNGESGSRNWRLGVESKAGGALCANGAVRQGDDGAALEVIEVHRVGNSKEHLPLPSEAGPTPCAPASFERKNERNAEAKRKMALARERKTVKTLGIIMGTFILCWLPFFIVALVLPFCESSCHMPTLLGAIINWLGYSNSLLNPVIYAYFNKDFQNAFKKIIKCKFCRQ

[5] = target: 5-hydroxytryptamine receptor 7 (Homo sapiens, UniProt P34969); experiment: Displacement of [3H]-5-CT from human 5-HT7b receptor expressed in HEK293 cell membranes after 1 hr by microbeta TopCount analysis
[6] = species: Homo sapiens; experiment: Selectivity index, ratio of Ki for human 5-HT7B receptor to Ki for human 5-HT6 receptor

5-hydroxytryptamine receptor 7, sequence (P34969 whole entry): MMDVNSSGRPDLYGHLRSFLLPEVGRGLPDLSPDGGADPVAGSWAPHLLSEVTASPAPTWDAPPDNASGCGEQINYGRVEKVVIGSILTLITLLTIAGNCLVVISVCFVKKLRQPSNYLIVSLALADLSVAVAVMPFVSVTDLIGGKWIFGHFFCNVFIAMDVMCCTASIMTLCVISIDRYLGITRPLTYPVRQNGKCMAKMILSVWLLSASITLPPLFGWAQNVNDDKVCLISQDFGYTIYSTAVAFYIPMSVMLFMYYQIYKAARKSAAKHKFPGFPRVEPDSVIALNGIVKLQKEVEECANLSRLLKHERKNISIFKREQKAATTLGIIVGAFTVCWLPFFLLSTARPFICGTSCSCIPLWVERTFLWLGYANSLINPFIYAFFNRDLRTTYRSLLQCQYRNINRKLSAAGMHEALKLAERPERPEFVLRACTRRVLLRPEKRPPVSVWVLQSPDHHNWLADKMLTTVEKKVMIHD
5-hydroxytryptamine receptor 6, sequence (P50406 whole entry): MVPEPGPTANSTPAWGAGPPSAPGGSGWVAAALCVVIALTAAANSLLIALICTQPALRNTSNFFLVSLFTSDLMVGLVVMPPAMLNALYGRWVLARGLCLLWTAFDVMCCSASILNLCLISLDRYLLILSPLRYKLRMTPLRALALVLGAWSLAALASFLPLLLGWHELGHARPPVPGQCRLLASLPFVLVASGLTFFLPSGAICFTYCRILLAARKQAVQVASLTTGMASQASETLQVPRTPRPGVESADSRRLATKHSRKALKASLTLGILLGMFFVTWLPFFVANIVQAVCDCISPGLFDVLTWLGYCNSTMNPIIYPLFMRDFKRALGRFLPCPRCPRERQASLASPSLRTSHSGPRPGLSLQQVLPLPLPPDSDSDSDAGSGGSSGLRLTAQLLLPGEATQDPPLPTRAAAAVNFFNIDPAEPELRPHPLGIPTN

SMILES	Ki [1] [µM]	Ratio Ki [2]	Ratio Ki [3]	Ki [4] [µM]	Ki [5] [µM]	Ratio Ki [6]
Cc1ccc(C(C)NCCC(c2ccc(F)cc2)c2ccco2)cc1 (configuration not stated)	1.8	3	0.5	6.1	12.5	7
COc1cc(CNCCC2=CCCCC2)ccc1OCc1ccccc1	2.7	2	0.6	4.9	8	3
COc1ccc(CNCCC(c2ccccc2)c2ccc3c(c2)OCO3)cc1 (configuration not stated)	3.7	4	1	15.6	14.1	4
COc1ccc(CNCCC(c2ccco2)c2ccccc2OC)cc1 (configuration not stated)	2.4	2	0.6	6.1	10.4	4
Cc1ccc(C(C)(C)CC(C)NCc2ccc(C(F)(F)F)cc2)o1 (configuration not stated)	5.8	5	5	31.4	6.1	1
O[C@H](CCN1CCc2onc(-c3ccc(F)c(F)c3)c2C1)c1ccccc1	9	37	5	330	71.2	8
O=C1N(Cc2ccccc2)C(c2ccccc2)=NC1(Nc1ccccn1)C(F)(F)F (configuration not stated)	1.9	149	3	284	84.5	44
CCC1(C)CC(CCNCc2ccc(OC)c(OC)c2)(c2ccc(C)cc2)CCO1 (configuration not stated)	3.4	11	1	36.8	37.2	11
CC(NCCC(Cc1ccccc1)c1ccco1)c1ccc(Cl)cc1 (configuration not stated)	1.4	5	2	7.1	3.8	3
Cc1ccc(C(CCNC(C)c2ccc(Cl)cc2)c2ccco2)cc1 (configuration not stated)	2.5	4	1	9.1	8.4	3
CCC1(C)CC(CCNCc2ccccc2)(c2ccc(C)cc2)CCO1 (configuration not stated)	5.6	8	4	41.8	10.1	2
Cc1ccc(COc2ccc(Br)cc2CNC(C)c2ccccc2)cc1 (configuration not stated)	5.1	38	54	196	3.7	0.7
